Measurements: US8076487B2, “Pyridone derivative and herbicide” (Kumiai Chemical Industry Co., Ltd., priority 2006, dated 2011)

What was measured:
Type in all cases: in vivo
[1] = system: green foxtail (Setaria viridis (L.) P. Beauv.); experiment: Test Example 3: herbicidal effect by application to upland field (foliage treatment); details: foliage treatment, 1,000 g active ingredient per 1 hectare, 14th day after application, greenhouse
Method in brief: (§1)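 Post-emergence spray at 1,000 g AI/ha of wettable powder in water (1,000 L/ha), onto seedlings grown 2 weeks in greenhouse field-soil pots. Graded day 14.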

[2] = system: barnyardgrass (Echinochloa crus-galli (L.) P. Beauv. var. crus-galli); experiment: as above; details: foliage treatment, 1,000 g active ingredient per 1 hectare, 14th day after application, greenhouse
Method in brief: as §1

[3] = system: velvetleaf (Abutilon theophrasti medicus); experiment: as above; details: foliage treatment, 1,000 g active ingredient per 1 hectare, 14th day after application, greenhouse
Method in brief: as §1

[4] = system: slender amaranth (Amaranthus viridis L.); experiment: as above; details: foliage treatment, 1,000 g active ingredient per 1 hectare, 14th day after application, greenhouse
Method in brief: as §1

[5] = system: early watergrass (Echinochloa oryzicola Vasing); experiment: Test Example 1: herbicidal effect by soil application to paddy field; details: paddy field soil application; active ingredient 1,000 g per 1 hectare; wettable powder added dropwise to water surface the day after sowing; examined on the 21st day after application
Method in brief: (§2)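 Plants were sown in flooded (3 cm) paddy soil and evaluated for herbicidal effect 21 days after soil application in a greenhouse.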

[6] = system: Japanese bulrush (Scirpus juncoides Roxb.); experiment: as above; details: paddy field soil application; active ingredient 1,000 g per 1 hectare; wettable powder added dropwise to water surface the day after sowing; examined on the 21st day after application
Method in brief: as §2

[7] = system: heartshape false pickerelweed (Monochoria vaginalis (Burm.f.) C.Presl); experiment: as above; details: paddy field soil application; active ingredient 1,000 g per 1 hectare; wettable powder added dropwise to water surface the day after sowing; examined on the 21st day after application
Method in brief: as §2

[8] = system: green foxtail (Setaria viridis (L.) P. Beauv.); experiment: Test Example 2: herbicidal effect by soil application to upland field; details: soil surface spray, upland field soil, 1,000 g active ingredient per hectare, 21st day after application
Method in brief: (§3)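 Pre-emergence soil test: seeds sown in pots of field soil, then wettable-powder formulation sprayed on soil surface at 1,000 g active ingredient per hectare in 1,000 L water per hectare. Plants grown in greenhouse; herbicidal effect scored on a standard scale at day 21.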

[9] = system: barnyardgrass (Echinochloa crus-galli (L.) P. Beauv. var. crus-galli); experiment: as above; details: soil surface spray, upland field soil, 1,000 g active ingredient per hectare, 21st day after application
Method in brief: as §3

[10] = system: velvetleaf (Abutilon theophrasti medicus); experiment: as above; details: soil surface spray, upland field soil, 1,000 g active ingredient per hectare, 21st day after application
Method in brief: as §3

[11] = system: slender amaranth (Amaranthus viridis L.); experiment: as above; details: soil surface spray, upland field soil, 1,000 g active ingredient per hectare, 21st day after application
Method in brief: as §3

SMILES	herbicidal effect, Green Foxtail [1]	herbicidal effect, Barnyardgrass [2]	herbicidal effect, Velvetleaf [3]	herbicidal effect, Slender Amaranth [4]	herbicidal effect, Echinochloa oryzicola Vasing [5]	herbicidal effect, Scirpus juncoides Roxb. [6]	herbicidal effect, Monochoria vaginalis (Burm. f.) C. Presl [7]	herbicidal effect (index), Green Foxtail [8]	herbicidal effect (index), Barnyardgrass [9]	herbicidal effect (index), Velvetleaf [10]	herbicidal effect (index), Slender Amaranth [11]
CCn1ncc(C(=O)c2ccc(C(F)(F)F)n(CC3CCCO3)c2=O)c1O (stereo not drawn) [IV-205]	5 (90% or more of herbicidal effect and crop phytotoxicity)	5 (90% or more of herbicidal effect and crop phytotoxicity)	5 (90% or more of herbicidal effect and crop phytotoxicity)	5 (90% or more of herbicidal effect and crop phytotoxicity)	5 (90% or more of herbicidal effect and crop phytotoxicity)	5 (90% or more of herbicidal effect and crop phytotoxicity)	5 (90% or more of herbicidal effect and crop phytotoxicity)	5 (90% or more of herbicidal effect and crop phytotoxicity)	5 (90% or more of herbicidal effect and crop phytotoxicity)	5 (90% or more of herbicidal effect and crop phytotoxicity)	5 (90% or more of herbicidal effect and crop phytotoxicity)
CC(C)n1ncc(C(=O)c2ccc(C(F)(F)F)n(C)c2=O)c1O [IV-219]	3 (50 to less than 70% of herbicidal effect and crop phytotoxicity)	5 (90% or more of herbicidal effect and crop phytotoxicity)	5 (90% or more of herbicidal effect and crop phytotoxicity)	5 (90% or more of herbicidal effect and crop phytotoxicity)	5 (90% or more of herbicidal effect and crop phytotoxicity)	5 (90% or more of herbicidal effect and crop phytotoxicity)	5 (90% or more of herbicidal effect and crop phytotoxicity)	3 (50 to less than 70% of herbicidal effect and crop phytotoxicity)	5 (90% or more of herbicidal effect and crop phytotoxicity)	5 (90% or more of herbicidal effect and crop phytotoxicity)	5 (90% or more of herbicidal effect and crop phytotoxicity)
Cn1ncc(C(=O)c2ccc(Cl)n(C)c2=O)c1O [IV-243]	4 (70 to less than 90% of herbicidal effect and crop phytotoxicity)	5 (90% or more of herbicidal effect and crop phytotoxicity)	5 (90% or more of herbicidal effect and crop phytotoxicity)	5 (90% or more of herbicidal effect and crop phytotoxicity)	5 (90% or more of herbicidal effect and crop phytotoxicity)	5 (90% or more of herbicidal effect and crop phytotoxicity)	5 (90% or more of herbicidal effect and crop phytotoxicity)	3 (50 to less than 70% of herbicidal effect and crop phytotoxicity)	5 (90% or more of herbicidal effect and crop phytotoxicity)	5 (90% or more of herbicidal effect and crop phytotoxicity)	5 (90% or more of herbicidal effect and crop phytotoxicity)
